Consider 21 compounds from US10100041B2, “Pyrazolyl substituted tetrahydropyranylsulfones” (GRÜNENTHAL GMBH, priority 2015, dated 2018).

This test has as its target T1, Human CaV2.2 channels (Homo sapiens, UniProt Q00975).
T1 construct: expressed in transfected cells
Briefly: Fluorescence assay for CaV2.2 channels using potassium depolarization to induce channel opening (FLIPR, Fluo 4). It is filed as cell-based. The following applies: 30 mM KCl (alternative assay buffer, inactivated channel state), HEK293 cells; for inhibition at 3 µM: HEK293, 3 μM test compound, read-out: Activity Category: %-Inhib (CaV2.2) @3 μM @30 mM KCl; for Activity Category: %-Inhib (CaV2.2) @3 μM @30 mM KCl: 3 μM test compound. An excerpt:
In the process, the Ca^2+ influx is quantified in the FLIPR assay with the aid of a Ca^2+-sensitive dye (type Fluo-4, Molecular Probes Europe BV, Leiden, the Netherlands) in a fluorescent imaging plate reader (FLIPR 3, Molecular Devices, Sunnyvale, USA), as described hereinafter.
2.1 Fluorescence Assay for CaV2.2 Channels Using Potassium Depolarization to Induce Channel Opening
Human CaV2.2 channels were stably expressed in HEK293 cells together with alpha2-delta and beta subunits of voltage gated calcium channels. In addition, an inwardly rectifying potassium channel (Kir2.3) was stably expressed in these cells to augment control of the cell membrane potential by the concentration of extracellular potassium ions. Raise of the extracellular potassium concentration leads to depolarization of the membrane potential and thus regulates the voltage dependent state of CaV2.2 channels. For preparation, cells were seeded in black poly-D-lysine coated 96-well plates (Becton Dickinson, Biocoat 4640) in 100 μL medium [500 mL DMEM/F-12 plus Glutamax (Invitrogen 31331-093) plus 5.5 mL MEM NEAA 100× (Invitrogen 11140-035) plus 50 mL FBS decomplemented (Invitrogen 10270-106) plus 200 μg/mL Geneticin (Invitrogen 10131-027) plus 50 μg/mL Hygromycin B (Invitrogen 10687-010) plus 2 μg/mL Blasticidin (anti-b15b Invivo-Gen) plus 0.2 μg/mL Puromycin (A 11138-03)] at a cell density of 30.000 cells per well. Plates were incubated at 37° C. (5% CO2) for 20 to 23 h. On the day of experiment medium was discarded and cells were loaded with Fluo 4 by addition of 100 μL of basic assay buffer (10 mM HEPES, 1 mM KCl, 149 mM NaCl, 0.8 mM CaCl2, 1.7 mM MgCl2, 10 mM Glucose, 0.1% BSA. pH 7.4) containing 2 μM Fluo 4 (Molecular Probes; F-14201), 0.01% pluronic acid (Molecular Probes; P-6866) and 2.5 mM probenecid (Molecular Probes; P36400). Cells were incubated in the dark at 25° C. for 60 min. Then dye containing buffer was discarded and […] basic (1 mM KCl) or alternative (30 mM KCl) assay buffer was added. The alternative assay buffer contained altered concentrations of KCl (30 mM) and NaCl (120 mM) and was used in order to promote the inactivated channel state. After that 25 μL of basic or alternative assay buffer with or without test compound were added and cells were incubated again in the dark at 25° C. for 15 min. Fluorescence intensity was measured on a FLIPR 3 instrument (Molecular Devices Corp., Sunnyvale, Calif.) with excitation at 480 nm and emission at 535 nm. After continuously reading fluorescence for 30 sec, 50 μL of basic assay buffer containing 210 mM KCl (NaCl omitted) were added for depolarization. Peak fluorescent signal intensity was determined and the amplitude of the peak signal, normalized to base line, was used to measure channel inhibition by test compounds.

Some results are limits rather than exact numbers.

T1 sequence (Q00975 whole entry): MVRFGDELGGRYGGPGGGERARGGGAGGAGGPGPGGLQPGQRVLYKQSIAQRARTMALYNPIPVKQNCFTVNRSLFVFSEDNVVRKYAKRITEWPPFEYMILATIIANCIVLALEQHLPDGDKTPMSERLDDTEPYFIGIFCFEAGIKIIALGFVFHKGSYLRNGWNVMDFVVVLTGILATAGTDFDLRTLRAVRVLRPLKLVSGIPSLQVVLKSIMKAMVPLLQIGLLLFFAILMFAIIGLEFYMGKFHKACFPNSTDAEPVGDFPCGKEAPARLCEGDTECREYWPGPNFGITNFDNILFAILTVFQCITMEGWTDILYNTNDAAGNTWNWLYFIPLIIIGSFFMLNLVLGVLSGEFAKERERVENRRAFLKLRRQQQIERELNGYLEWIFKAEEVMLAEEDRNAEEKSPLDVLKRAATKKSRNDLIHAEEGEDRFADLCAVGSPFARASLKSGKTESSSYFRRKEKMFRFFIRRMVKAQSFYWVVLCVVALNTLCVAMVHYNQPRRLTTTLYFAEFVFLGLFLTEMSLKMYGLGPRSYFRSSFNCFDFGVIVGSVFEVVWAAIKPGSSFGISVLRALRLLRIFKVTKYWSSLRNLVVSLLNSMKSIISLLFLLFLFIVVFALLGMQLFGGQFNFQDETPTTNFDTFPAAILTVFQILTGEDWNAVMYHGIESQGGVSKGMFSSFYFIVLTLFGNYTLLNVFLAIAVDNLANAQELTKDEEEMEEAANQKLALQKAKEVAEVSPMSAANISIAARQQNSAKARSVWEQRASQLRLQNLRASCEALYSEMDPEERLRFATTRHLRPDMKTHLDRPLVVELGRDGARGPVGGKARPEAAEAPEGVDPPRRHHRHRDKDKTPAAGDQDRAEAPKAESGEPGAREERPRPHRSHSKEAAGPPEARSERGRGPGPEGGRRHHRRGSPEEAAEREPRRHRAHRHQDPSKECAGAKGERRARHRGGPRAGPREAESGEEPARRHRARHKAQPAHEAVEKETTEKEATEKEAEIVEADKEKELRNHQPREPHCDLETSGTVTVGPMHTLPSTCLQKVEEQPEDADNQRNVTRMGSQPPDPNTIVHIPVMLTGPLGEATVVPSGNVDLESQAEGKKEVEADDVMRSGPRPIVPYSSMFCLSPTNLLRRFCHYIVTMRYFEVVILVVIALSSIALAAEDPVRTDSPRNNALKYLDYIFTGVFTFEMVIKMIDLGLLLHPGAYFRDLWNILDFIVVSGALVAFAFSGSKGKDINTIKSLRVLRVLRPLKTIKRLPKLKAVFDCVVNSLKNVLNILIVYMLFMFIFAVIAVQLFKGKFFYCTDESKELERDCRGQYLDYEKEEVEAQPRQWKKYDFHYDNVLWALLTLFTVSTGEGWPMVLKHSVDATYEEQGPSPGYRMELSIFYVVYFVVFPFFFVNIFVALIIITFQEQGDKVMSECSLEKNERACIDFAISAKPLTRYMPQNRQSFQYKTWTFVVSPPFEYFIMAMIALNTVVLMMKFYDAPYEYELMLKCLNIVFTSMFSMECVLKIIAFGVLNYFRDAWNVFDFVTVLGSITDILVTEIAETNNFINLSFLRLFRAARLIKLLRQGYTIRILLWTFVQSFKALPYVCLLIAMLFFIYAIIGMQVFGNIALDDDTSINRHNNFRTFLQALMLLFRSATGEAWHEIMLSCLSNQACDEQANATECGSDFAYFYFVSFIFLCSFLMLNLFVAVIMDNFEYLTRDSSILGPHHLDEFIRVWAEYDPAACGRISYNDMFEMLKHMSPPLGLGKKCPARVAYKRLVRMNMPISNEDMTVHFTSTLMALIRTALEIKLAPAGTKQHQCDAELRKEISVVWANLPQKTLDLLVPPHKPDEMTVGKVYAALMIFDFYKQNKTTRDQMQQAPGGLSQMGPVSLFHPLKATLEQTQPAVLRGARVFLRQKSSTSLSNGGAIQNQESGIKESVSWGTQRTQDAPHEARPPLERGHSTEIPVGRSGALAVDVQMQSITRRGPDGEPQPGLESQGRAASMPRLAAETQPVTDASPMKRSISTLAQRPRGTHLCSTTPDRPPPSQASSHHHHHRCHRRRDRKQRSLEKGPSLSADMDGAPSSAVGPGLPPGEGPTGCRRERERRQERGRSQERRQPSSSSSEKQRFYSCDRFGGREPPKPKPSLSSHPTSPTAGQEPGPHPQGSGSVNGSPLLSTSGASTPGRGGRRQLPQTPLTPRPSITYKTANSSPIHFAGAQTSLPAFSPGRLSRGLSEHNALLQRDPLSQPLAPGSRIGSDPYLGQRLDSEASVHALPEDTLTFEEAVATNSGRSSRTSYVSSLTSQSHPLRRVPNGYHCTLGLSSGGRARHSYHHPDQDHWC

Consider `CC1(S(=O)(=O)c2cccc(C(F)(F)F)c2)CCOC(c2cc(C(F)(F)F)nn2CS(C)(=O)=O)C1` (racemic) [Example 18 cis-rac, 1-(Methylsulfonyl-methyl)-5-[4-methyl-4-[[3-(trifluoromethyl)phenyl]sulfonyl]-tetrahydro-pyran-2-yl]-3-(trifluoromethyl)-1H-pyrazole], for which the inhibition at 3 µM was greater than 95%.

On to `CC1(S(=O)(=O)c2cccc(C(F)(F)F)c2)CCOC(c2cc(C(F)(F)F)nn2CCO)C1` (stereo not drawn) [Example 2 cis-EN1, 2-[5-[4-Methyl-4-[[3-(trifluoromethyl)phenyl]sulfonyl]-tetrahydro-pyran-2-yl]-3-(trifluoromethyl)-1H-pyrazol-1-yl]-ethanol], for which the inhibition at 3 µM lay within 75 to 95%.

Consider `COCn1nc(C(F)F)cc1C1CC(C)(S(=O)(=O)c2cccc(C(F)(F)F)c2)CCO1` (stereo not drawn) [Example 5 cis-EN1, 3-(Difluoromethyl)-1-(methoxymethyl)-5-(4-methyl-4-((3-(trifluoromethyl)phenyl)sulfonyl)tetrahydro-2H-pyran-2-yl)-1H-pyrazole], for which the inhibition at 3 µM is 75 to 95%.

Regarding `CC1(S(=O)(=O)c2cccc(C(F)(F)F)c2)CCOC(c2cc(C(F)(F)F)nn2CCCO)C1` (stereo not drawn) [Example 9 cis-EN1, 3-[5-[4-Methyl-4-[[3-(trifluoromethyl)phenyl]sulfonyl]-tetrahydro-pyran-2-yl]-3-(trifluoromethyl)-1H-pyrazol-1-yl]-propan-1-ol], the inhibition at 3 µM fell in the range of 75 to 95%.

`CC1(S(=O)(=O)c2cccc(C(F)(F)F)c2)CCOC(c2cc(S(=O)(=O)C(F)F)nn2CCO)C1` (stereo not drawn) [Example 25 cis-EN1, 2-[3-(Difluoro-methylsulfonyl)-5-[4-methyl-4-[[3-(trifluoromethyl)phenyl]sulfonyl]-tetrahydro-pyran-2-yl]-1H-pyrazol-1-yl]-ethanol]: the inhibition at 3 µM fell in the range of 75 to 95%.

In the case of `CC1(S(=O)(=O)c2cccc(C(F)(F)F)c2)CCOC(c2cc(C(F)(F)F)nn2CCO)C1` (racemic) [Example 2 trans-rac, 2-[5-[4-Methyl-4-[[3-(trifluoromethyl)phenyl]sulfonyl]-tetrahydro-pyran-2-yl]-3-(trifluoromethyl)-1H-pyrazol-1-yl]-ethanol], the inhibition at 3 µM is 40 to 75%.

`COCn1nc(C(F)(F)F)cc1C1CC(C)(S(=O)(=O)c2cccc(C(F)(F)F)c2)CCO1` (stereo not drawn) [Example 21 cis-EN1, 1-(Methoxymethyl)-5-[4-methyl-4-[[3-(trifluoromethyl)phenyl]sulfonyl]-tetrahydro-pyran-2-yl]-3-(trifluoromethyl)-1H-pyrazole]: the inhibition at 3 µM was greater than 95%.

Take `CC(C)(C(N)=O)n1nc(C(F)(F)F)cc1C1CC(C)(S(=O)(=O)c2cccc(C(F)(F)F)c2)CCO1` (stereo not drawn) [Example 26 cis-EN1, 2-Methyl-2-[5-[4-methyl-4-[[3-(trifluoromethyl)phenyl]sulfonyl]-tetrahydro-pyran-2-yl]-3-(trifluoromethyl)-1H-pyrazol-1-yl]-propionamide]: the inhibition at 3 µM was greater than 95%.

As for `CC1(S(=O)(=O)c2cccc(C(F)(F)F)c2)CCOC(c2cc(S(C)(=O)=O)nn2CCO)C1` (stereo not drawn) [Example 4 cis-EN1, 2-[3-Methylsulfonyl-5-[4-methyl-4-[[3-(trifluoromethyl)phenyl]sulfonyl]-tetrahydro-pyran-2-yl]-1H-pyrazol-1-yl]-ethanol], the inhibition at 3 µM lay within 40 to 75%.

In the case of `CC(CO)Cn1nc(C(F)(F)F)cc1C1CC(C)(S(=O)(=O)c2cccc(C(F)(F)F)c2)CCO1` (racemic) [Example 24 cis-rac, 2-Methyl-3-[5-[4-methyl-4-[[3-(trifluoromethyl)phenyl]sulfonyl]-tetrahydro-pyran-2-yl]-3-(trifluoromethyl)-1H-pyrazol-1-yl]-propan-1-ol], the inhibition at 3 µM is greater than 95%.

`COCCn1nc(S(C)(=O)=O)cc1C1CC(C)(S(=O)(=O)c2cccc(C(F)(F)F)c2)CCO1` (racemic) [Example 23 cis-rac, 1-(2-Methoxyethyl)-5-(4-methyl-4-((3-(trifluoromethyl)phenyl)sulfonyl)tetrahydro-2H-pyran-2-yl)-3-(methylsulfonyl)-1H-pyrazole]: the inhibition at 3 µM is 75 to 95%.

Consider `CC1(S(=O)(=O)c2cccc(C(F)(F)F)c2)CCOC(c2cc(C(F)(F)F)nn2C2COC2)C1` (stereo not drawn) [Example 17 cis-EN1, 5-[4-Methyl-4-[[3-(trifluoromethyl)phenyl]sulfonyl]-tetrahydro-pyran-2-yl]-1-(oxetan-3-yl)-3-(trifluoromethyl)-1H-pyrazole], for which the inhibition at 3 µM was 75 to 95%.

As to `CC(C)(CO)n1nc(C(F)(F)F)cc1C1CC(C)(S(=O)(=O)c2cccc(C(F)(F)F)c2)CCO1` (stereo not drawn) [Example 6 cis-EN2, 2-Methyl-2-[5-[4-methyl-4-[[3-(trifluoromethyl)phenyl]sulfonyl]-tetrahydro-pyran-2-yl]-3-(trifluoromethyl)-1H-pyrazol-1-yl]-propan-1-ol], the “Activity Category: %-Inhib (CaV2.2) @3 μM @30 mM KCl” value (from here on “Activity Category: %-Inhib”) is given as “A (“A”: %-Inhibition >95%)”.

With `CC1(S(=O)(=O)c2cccc(C(F)(F)F)c2)CCOC(c2cc(C(F)(F)F)nn2CCO)C1` (stereo not drawn) [Example 2 cis-EN2, 2-[5-[4-Methyl-4-[[3-(trifluoromethyl)phenyl]sulfonyl]-tetrahydro-pyran-2-yl]-3-(trifluoromethyl)-1H-pyrazol-1-yl]-ethanol], the “Activity Category: %-Inhib” value was “A (“A”: %-Inhibition >95%)”.

Take `CC(C)(C(N)=O)n1nc(C(F)(F)F)cc1C1CC(C)(S(=O)(=O)c2cccc(C(F)(F)F)c2)CCO1` (stereo not drawn) [Example 26 cis-EN2, 2-Methyl-2-[5-[4-methyl-4-[[3-(trifluoromethyl)phenyl]sulfonyl]-tetrahydro-pyran-2-yl]-3-(trifluoromethyl)-1H-pyrazol-1-yl]-propionamide]: the “Activity Category: %-Inhib” value was “B (“B”: %-Inhibition >75% up to ≤95%)”.

As for `CC1(S(=O)(=O)c2cccc(C(F)(F)F)c2)CCOC(c2cc(C(F)(F)F)nn2CCS(C)(=O)=O)C1` (stereo not drawn) [Example 19 cis-EN2, 1-(2-Methylsulfonyl-ethyl)-5-[4-methyl-4-[[3-(trifluoromethyl)phenyl]sulfonyl]-tetrahydro-pyran-2-yl]-3-(trifluoromethyl)-1H-pyrazole], the inhibition at 3 µM was greater than 95%.

With `CN(C)C(=O)Cn1nc(C(F)(F)F)cc1C1CC(C)(S(=O)(=O)c2cccc(C(F)(F)F)c2)CCO1` (stereo not drawn) [Example 28 cis-EN1, N,N-Dimethyl-2-[5-[4-methyl-4-[[3-(trifluoromethyl)phenyl]sulfonyl]-tetrahydro-pyran-2-yl]-3-(trifluoromethyl)-1H-pyrazol-1-yl]-acetamide], the inhibition at 3 µM lay in the range of 75 to 95%.

As for `COCn1nc(C(F)F)cc1C1CC(C)(S(=O)(=O)c2cccc(C(F)(F)F)c2)CCO1` (stereo not drawn) [Example 5 cis-EN2, 3-(Difluoromethyl)-1-(methoxymethyl)-5-(4-methyl-4-((3-(trifluoromethyl)phenyl)sulfonyl)tetrahydro-2H-pyran-2-yl)-1H-pyrazole], the “Activity Category: %-Inhib” value is listed as “A (“A”: %-Inhibition >95%)”.

As for `CNC(=O)Cn1nc(C(F)(F)F)cc1C1CC(C)(S(=O)(=O)c2cccc(C(F)(F)F)c2)CCO1` (stereo not drawn) [Example 29 cis-EN1, N-Methyl-2-[5-[4-methyl-4-[[3-(trifluoromethyl)phenyl]sulfonyl]-tetrahydro-pyran-2-yl]-3-(trifluoromethyl)-1H-pyrazol-1-yl]-acetamide], the inhibition at 3 µM was 75 to 95%.

Consider `CC1(S(=O)(=O)c2cccc(C(F)(F)F)c2)CCOC(c2cc(S(=O)(=O)C(F)F)nn2CCO)C1` (stereo not drawn) [Example 25 cis-EN2, 2-[3-(Difluoro-methylsulfonyl)-5-[4-methyl-4-[[3-(trifluoromethyl)phenyl]sulfonyl]-tetrahydro-pyran-2-yl]-1H-pyrazol-1-yl]-ethanol], for which the “Activity Category: %-Inhib” value is on record as “A (“A”: %-Inhibition >95%)”.

Regarding `CC1(S(=O)(=O)c2cccc(C(F)(F)F)c2)CCOC(c2cc(C(F)(F)F)nn2CC(N)=O)C1` (stereo not drawn) [Example 11 cis-EN1, 2-[5-[4-Methyl-4-[[3-(trifluoromethyl)phenyl]sulfonyl]-tetrahydro-pyran-2-yl]-3-(trifluoromethyl)-1H-pyrazol-1-yl]-acetamide], the inhibition at 3 µM fell in the range of 75 to 95%.
